Laboratory results taken from ChEMBL document CHEMBL1201862, “PubChem BioAssay data set” (2004).
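Protocol summary: plate cells (96-well), add compound at 5 concentrations, incubate 48 h, interpolate endpoints linearly. Here, GI50 denotes the concentration required for 50% inhibition of growth.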 Active and inactive are the calls of the source. Cut-off read from the data, not from the text of the source: active = GI50 up to about 1.1 µM and inactive = higher.

Assays:
Assay in all cases: growth of human tumour cells (NCI), 48 h
KM-20L2 = tested on: KM-20L2
NCI-H460 = tested on: NCI-H460
SNB-78 = tested on: SNB-78
NCI-H23 = tested on: NCI-H23
OVCAR-8 = tested on: OVCAR-8
HT-29 = tested on: HT-29
A549 = tested on: A549
CCRF-CEM = tested on: CCRF-CEM
RXF 393 = tested on: RXF 393
OVCAR-5 = tested on: OVCAR-5
UO-31 = tested on: UO-31
M14 = tested on: M14
KM12 = tested on: KM12
M19-MEL = tested on: M19-MEL
U-251 = tested on: U-251
RXF 631 = tested on: RXF 631
SK-OV-3 = tested on: SK-OV-3
HOP-92 = tested on: HOP-92
TK-10 = tested on: TK-10
UACC-257 = tested on: UACC-257
MOLT-4 = tested on: MOLT-4
SNB-19 = tested on: SNB-19
SK-MEL-28 = tested on: SK-MEL-28
ACHN = tested on: ACHN
HOP-62 = tested on: HOP-62
HCT-116 = tested on: HCT-116
NCI-H522 = tested on: NCI-H522
DMS-114 = tested on: DMS-114
A498 = tested on: A498
HL-60 = tested on: HL-60
UACC-62 = tested on: UACC-62
IGROV-1 = tested on: IGROV-1
SF-295 = tested on: SF-295
DMS-273 = tested on: DMS-273
EKVX = tested on: EKVX
SR = tested on: SR
Malme-3M = tested on: Malme-3M
DLD-1 = tested on: DLD-1
XF498 = tested on: XF498
SF-268 = tested on: SF-268
HCC 2998 = tested on: HCC 2998
COLO 205 = tested on: COLO 205
OVCAR-4 = tested on: OVCAR-4
HCT-15 = tested on: HCT-15
LXFL 529 = tested on: LXFL 529
SW-620 = tested on: SW-620
LOX IMVI = tested on: LOX IMVI
SNB-75 = tested on: SNB-75
HOP-18 = tested on: HOP-18
SF-539 = tested on: SF-539
OVCAR-3 = tested on: OVCAR-3
SN12C = tested on: SN12C
CAKI-1 = tested on: CAKI-1
SK-MEL-5 = tested on: SK-MEL-5
SK-MEL-2 = tested on: SK-MEL-2
NCI-H226 = tested on: NCI-H226
786-0 = tested on: 786-0
K562 = tested on: K562

Measured: GI50

COc1ccccc1-c1csc(CCC(N)C(=O)O)n1 (configuration not stated)
inactive: KM-20L2 > 100 µM | NCI-H460 > 100 µM | SNB-78 > 100 µM | NCI-H23 > 100 µM | OVCAR-8 > 100 µM | HT-29 > 100 µM | A549 > 100 µM | CCRF-CEM > 100 µM | RXF 393 > 100 µM | OVCAR-5 > 100 µM | UO-31 > 100 µM | M14 > 100 µM | KM12 > 100 µM | M19-MEL > 100 µM | U-251 > 100 µM | RXF 631 > 100 µM | SK-OV-3 > 100 µM | HOP-92 > 100 µM | TK-10 26.3 µM | UACC-257 > 100 µM | MOLT-4 > 100 µM | SNB-19 > 100 µM | SK-MEL-28 > 100 µM | ACHN > 100 µM | HOP-62 > 100 µM | HCT-116 > 100 µM | NCI-H522 > 100 µM | DMS-114 > 100 µM | A498 > 100 µM | HL-60 > 100 µM | UACC-62 > 100 µM | IGROV-1 > 100 µM | SF-295 > 100 µM | DMS-273 > 100 µM | EKVX > 100 µM | SR > 100 µM

COC(=O)C(C(=O)C(=O)Nc1ccc(C)cc1)c1nc2ccc([N+](=O)[O-])cc2nc1O (configuration not stated)
inactive: KM-20L2 > 100 µM | NCI-H460 > 100 µM | SNB-78 > 100 µM | NCI-H23 > 100 µM | Malme-3M > 100 µM | OVCAR-8 > 100 µM | DLD-1 > 100 µM | HT-29 > 100 µM | A549 > 100 µM | CCRF-CEM 36.1 µM | RXF 393 > 100 µM | XF498 > 100 µM | OVCAR-5 > 100 µM | UO-31 66.1 µM | M14 > 100 µM | KM12 > 100 µM | M19-MEL > 100 µM | U-251 37.6 µM | SK-OV-3 > 100 µM | SF-268 > 100 µM | HCC 2998 > 100 µM | COLO 205 53.5 µM | OVCAR-4 > 100 µM | TK-10 > 100 µM | UACC-257 > 100 µM | LXFL 529 51.6 µM | MOLT-4 92.9 µM | SNB-19 > 100 µM | SK-MEL-28 > 100 µM | ACHN > 100 µM | HOP-62 > 100 µM | HCT-116 > 100 µM | SW-620 > 100 µM | LOX IMVI > 100 µM | SNB-75 > 100 µM | HOP-18 > 100 µM | NCI-H522 6.93 µM | DMS-114 21.3 µM | SF-539 > 100 µM | OVCAR-3 > 100 µM | A498 > 100 µM | HL-60 35.6 µM | UACC-62 85.7 µM | SN12C > 100 µM | CAKI-1 > 100 µM | SK-MEL-5 49.1 µM | IGROV-1 > 100 µM | SF-295 > 100 µM | SK-MEL-2 > 100 µM | NCI-H226 > 100 µM | DMS-273 > 100 µM | 786-0 > 100 µM | EKVX > 100 µM | SR > 100 µM | K562 30.1 µM
> 100 µM: HCT-15
